Test results taken from paper PMC4232510, “Identification of Functionally Important Residues of the Rat P2X4 Receptor by Alanine Scanning Mutagenesis of the Dorsal Fin and Left Flipper Domains” (PLoS ONE, 2014).
Positions count from the first letter of the chain named. Values belong to the molecule of their own block, whether it stands above or below them.

How the values were obtained:
Test in all cases: whole-cell patch clamp, HEK293T cells expressing mutant
Assay type in all cases: cell-based
Conditions in all cases: for relative responsiveness: 100 µM agonist 2 s, relative to ATP (100%)
rP2X4R I205A mutant = biological target: T1, rP2X4R I205A mutant (Rattus norvegicus, UniProt P51577, I205A)
T1 construct: expressed in transfected cells; host or cells: HEK293T
T1 sequence (P51577 1-388 I205A): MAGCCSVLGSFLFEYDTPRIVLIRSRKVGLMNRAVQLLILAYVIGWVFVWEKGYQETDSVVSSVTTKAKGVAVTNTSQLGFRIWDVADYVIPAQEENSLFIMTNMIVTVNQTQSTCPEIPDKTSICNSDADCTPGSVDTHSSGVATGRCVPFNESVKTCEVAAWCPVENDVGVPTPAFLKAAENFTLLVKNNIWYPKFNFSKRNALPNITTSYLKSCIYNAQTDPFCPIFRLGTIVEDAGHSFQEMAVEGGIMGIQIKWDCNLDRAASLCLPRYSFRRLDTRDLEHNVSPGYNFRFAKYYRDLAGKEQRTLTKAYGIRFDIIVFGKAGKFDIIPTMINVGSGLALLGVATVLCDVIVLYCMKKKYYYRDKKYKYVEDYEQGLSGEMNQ
Protocol: (§1) To express the recombinant channels, we used human embryonic kidney (HEK) 293T cells (American Type Culture Collection, Rockville, MD, USA) grown in Dulbecco modified Eagle’s medium (Thermo Fisher Scientific, Waltham, MA) supplemented with 10% fetal bovine serum (Sigma-Aldrich, St Louis, MO), 50 U/ml penicillin and 50 µg/ml streptomycin (both Thermo Fisher Scientific, Waltham, MA) in a humidified 5% CO2 and 95% air at 37°C. Cells were cultured in 75 cm^2 plastic culture flasks (NUNC, Rochester, NY) for 36–72 hours until reaching 80–95% confluence. Before the day of transfection, the cells were plated on 35 mm culture dishes (Sarstedt, Newton, NC) and incubated at 37°C for at least 24 h. Transfection was done using 2 µg of either WT or mutant receptor DNA with 2 µl of JetPrime reagent in 2 ml of Dulbecco modified Eagle’s medium, according to manufacturer’s instructions (PolyPlus-transfection, Illkirch, France). Transfected cells were identified by the fluorescence signal of EGFP using the Olympus IX71 inverted research microscope with fluorescence illuminators (Model IX71; Olympus, Melville, NY).
(§2) cDNAs encoding the sequences of the rP2X4 and mutated subunits were subcloned into the pIRES2-EGFP vector (Clontech, Mountain View, CA, USA). To generate the mutants, oligonucleotides (synthesized and provided by VBC-Genomics, Vienna, Austria or Sigma Aldrich) containing specific mutagenesis mismatches were introduced into the rP2X4/pIRES2-EGFP template using PfU Ultra DNA polymerase (Thermo Fisher Scientific). A High-Speed Plasmid Mini Kit (Geneaid, Taipei City, Taiwan) was used to isolate the plasmids for transfection. Dye terminator cycle sequencing (ABI PRISM 3100, Applied Biosystems, Foster City, CA) was used to identify and verify the presence of the mutations. The sequencing was performed by the DNA Sequencing Laboratory, Institute of Microbiology, ASCR, Prague.
(§3) ATP-induced currents were recorded from whole cells clamped to −60 mV using an Axopatch 200B patch-clamp amplifier (Axon Instruments, Union City, CA). The recordings were captured and stored using the Digidata 1322A and pClamp9 software package (Axon Instruments). During the experiments, the cell culture was perfused with a bath solution containing: 142 mM NaCl, 3 mM KCl, 2 mM CaCl2, 1 mM MgCl2, 10 mM 4-(2-Hydroxyethyl)piperazine-1-ethanesulfonic acid (HEPES) and 10 mM D-glucose, adjusted to pH 7.3 with 1 M NaOH. The patch electrodes were filled with a solution containing: 154 mM CsCl, 11 mM EGTA and 10 mM HEPES, adjusted to pH 7.2 with 1.6 M CsOH. The whole-cell configuration was used to abolish the influence of natively present metabotropic receptors for ATP and we used intracellular cesium to block any kind of possible background potassium conductance. Potency of ATP was measured based on the activation of naïve (not previously stimulated) receptors using a short (2–5 s) application of various concentrations of ATP. The results are expressed as molar concentration of ATP required to produce 50% of the maximal response (EC50). One or two responses were recorded from one cell, if not otherwise stated, and responses from different cells were pooled. The maximum current amplitude (Imax) was measured in response to application of supramaximal concentrations (100–1000 µM) of ATP. Responsiveness to P2XR agonists 2-MeS-ATP, ATPγS, BzATP, and α,β-meATP, all applied in 100 µM concentration, was expressed as percentage of response in comparison to 100 µM ATP treatment for selected mutants. In all mutants, the whole cell currents were also measured in the presence of 3 µM IVM, which was dissolved in dimethyl sulfoxide, stored in stock solutions at 10 mM, and diluted to required concentrations in bath solution in the day of experiment. The control and drug containing solutions were applied via a rapid (exchange time 30–40 ms) perfusion system (RSC-200, BIOLOGIC, Claix, France). All other chemicals are from Sigma-Aldrich. […]

rP2X4R P290A mutant = biological target: T2, rP2X4R P290A mutant (Rattus norvegicus, UniProt P51577, P290A)
T2 construct: expressed in transfected cells; host or cells: HEK293T
T2 sequence (P51577 1-388 P290A): T1 sequence (P51577 1-388 I205A) with A205I, P290A
Protocol: as §1, §2, §3

rP2X4R G291A mutant = biological target: T3, rP2X4R G291A mutant (Rattus norvegicus, UniProt P51577, G291A)
T3 construct: expressed in transfected cells; host or cells: HEK293T
T3 sequence (P51577 1-388 G291A): T1 sequence (P51577 1-388 I205A) with A205I, G291A
Protocol: as §1, §2, §3

[1] = 100 µM ATP 60 s, biexponential fit
[2] = contribution of τdes2, 100 µM ATP 60 s
[3] = decay after removal of 1 or 3 µM ATP, 3 µM IVM
[4] = naïve receptors, 2–5 s application
[5] = 3 µM IVM 4-6 min vs IVM-untreated

Molecule: 2′(3′-O-(4-Benzoylbenzoyl)adenosine 5′-triphosphate [BzATP]
relative responsiveness (rP2X4R I205A mutant): 4.4±2.6 %
relative responsiveness (rP2X4R P290A mutant): 16.9±3.2 %
relative responsiveness (rP2X4R G291A mutant): 53.0±4.0 %

relative responsiveness (rP2X4R I205A mutant): 35.6±1.9 %
relative responsiveness (rP2X4R P290A mutant): 50.7±3.7%
relative responsiveness (rP2X4R G291A mutant): 36.9±8.8 %
Molecule: CSc1nc(N)c2ncn([C@@H]3O[C@H](COP(=O)(O)OP(=O)(O)OP(=O)(O)O)[C@@H](O)[C@H]3O)c2n1 [2-MeS-ATP, 2-(Methylthio)adenosine 5′-triphosphate]

Molecule: Nc1ncnc2c1ncn2[C@@H]1O[C@H](COP(=O)(O)OP(=O)(O)OP(=O)(O)O)[C@@H](O)[C@H]1O [ATP]
EC50 rightward shift compared to WT (rP2X4R I205A mutant): approximately 10 fold
τdes1 (rP2X4R I205A mutant; [1]): 1.5 ± 0.7 s
τdes2 (rP2X4R I205A mutant; [1]): 8.1 ± 1.3 s
Imax (rP2X4R I205A mutant; 100–1000 µM ATP): 0.6 ± 0.13 nA
Imax+IVM (rP2X4R I205A mutant; ATP after 3 µM IVM 4-6 min): 4.3 ± 0.4 nA
A2 /(A1+A2) (rP2X4R I205A mutant; [2]): 51 ± 4%
τoff +IVM (rP2X4R I205A mutant; [3]): 4.1 ± 0.9 s
EC50 (rP2X4R I205A mutant; [4]): 26 ± 7.7 µM
τdes (rP2X4R I205A mutant; weighted, 100 µM ATP 60 s): 4.9 ± 0.9. s
τdes1 (rP2X4R P290A mutant; [1]): 0.8 ± 0.1 s
τdes2 (rP2X4R P290A mutant; [1]): 12.0 ± 1.5 s
Imax (rP2X4R P290A mutant; 100–1000 µM ATP): 0.9 ± 0.1 nA
Imax+IVM (rP2X4R P290A mutant; ATP after 3 µM IVM 4-6 min): 3.3 ± 0.5 nA
A2 /(A1+A2) (rP2X4R P290A mutant; [2]): 53 ± 3%
τoff +IVM (rP2X4R P290A mutant; [3]): 13 ± 1.4 s
EC50 (rP2X4R P290A mutant; [4]): 8 ± 3.4 µM
τdes (rP2X4R P290A mutant; weighted, 100 µM ATP 60 s): 6.6 ± 0.5 s
τdes1 (rP2X4R G291A mutant; [1]): 2.0 ± 0.5 s
τdes2 (rP2X4R G291A mutant; [1]): 16.5 ± 2.7 s
Imax (rP2X4R G291A mutant; 100–1000 µM ATP): 2.1 ± 0.2 nA
Imax+IVM (rP2X4R G291A mutant; ATP after 3 µM IVM 4-6 min): 3.3 ± 0.4 nA
A2 /(A1+A2) (rP2X4R G291A mutant; [2]): 69 ± 12%
τoff +IVM (rP2X4R G291A mutant; [3]): 13 ± 1.0 s
EC50 (rP2X4R G291A mutant; [4]): 15 ± 3.8 µM
τdes (rP2X4R G291A mutant; weighted, 100 µM ATP 60 s): 13 ± 2.7 s

relative responsiveness (rP2X4R I205A mutant): 11.3±2.2 %
relative responsiveness (rP2X4R P290A mutant): 37.0±11.0%
relative responsiveness (rP2X4R G291A mutant): 31.6±6.1 %
Molecule: Nc1ncnc2c1ncn2[C@@H]1O[C@H](CO[P@](=O)(O)O[P@](=O)(O)O[P@@](=O)(O)S)[C@@H](O)[C@H]1O [ATPγS, Adenosine 5′-(γ-thio)triphosphate]

Molecule: CC[C@H](C)[C@H]1O[C@]2(CC[C@@H]1C)C[C@@H]1C[C@@H](C/C=C(\C)[C@@H](O[C@H]3C[C@H](OC)[C@@H](O[C@H]4C[C@H](OC)[C@@H](O)[C@H](C)O4)[C@H](C)O3)[C@@H](C)/C=C/C=C3\CO[C@@H]4[C@H](O)C(C)=C[C@@H](C(=O)O1)[C@]34O)O2 [IVM, ivermectin]
Fold incr. Imax (rP2X4R I205A mutant; [5]): 5.5 ± 0.6 fold
Fold incr. Imax (rP2X4R P290A mutant; [5]): 3.7 ± 0.2 fold
Fold incr. Imax (rP2X4R G291A mutant; [5]): 1.4 ± 0.02 fold

Molecule: Nc1ncnc2c1ncn2C1OC(COP(=O)(O)CP(=O)(O)OP(=O)(O)O)C(O)C1O (stereo not drawn) [α,β-meATP, α,β-methyleneadenosine 5′-triphosphate]
relative responsiveness (rP2X4R I205A mutant): 4.6±1.0 %
relative responsiveness (rP2X4R P290A mutant): 17.8±2.4 %
relative responsiveness (rP2X4R G291A mutant): 2.8±0.5 %
